Reference: paper PMC11249637, “Interaction of the Atypical Tetracyclines Chelocardin and Amidochelocardin with Renal Drug Transporters” (ACS Pharmacology & Translational Science, 2024)

Assays:
Format in all cases: in vitro ADME
mOct2 = target: T1, mOct2 (Mus musculus, UniProt O70577); test: Two-point inhibition of mOct2-mediated MPP uptake in transfected HEK293 cells; details: 1 and 10 μM; MPP 10 μM, 1 min
T1 construct: expressed in transfected cells; host or cells: HEK293
T1 sequence (O70577 1-553): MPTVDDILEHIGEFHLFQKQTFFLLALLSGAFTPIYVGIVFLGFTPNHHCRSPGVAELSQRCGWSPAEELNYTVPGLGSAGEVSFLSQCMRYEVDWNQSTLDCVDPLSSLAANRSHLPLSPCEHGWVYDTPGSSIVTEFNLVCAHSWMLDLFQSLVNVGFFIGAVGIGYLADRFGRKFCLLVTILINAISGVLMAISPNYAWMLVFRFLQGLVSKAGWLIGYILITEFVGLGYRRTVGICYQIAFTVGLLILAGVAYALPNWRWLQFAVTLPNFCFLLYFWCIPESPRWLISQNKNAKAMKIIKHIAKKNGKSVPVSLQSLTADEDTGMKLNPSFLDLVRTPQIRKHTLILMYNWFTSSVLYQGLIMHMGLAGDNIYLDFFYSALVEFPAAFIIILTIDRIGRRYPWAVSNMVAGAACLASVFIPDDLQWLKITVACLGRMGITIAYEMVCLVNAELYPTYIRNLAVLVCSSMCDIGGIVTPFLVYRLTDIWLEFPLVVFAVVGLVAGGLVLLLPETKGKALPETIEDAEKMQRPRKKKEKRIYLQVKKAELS
Protocol: (§1) Well-characterized mOct1-, mOct2-, mOat1-, mOat2-, mOat3-, mMate1-, hOAT1-, hOAT3-, hOAT4-, hMRP2-, mMdr1a- and mMdr1b-transfected HEK293 cells and the respective vector-transfected control HEK293 cells were used.[42],[51],[52] All HEK293 cells (transporter-transfected and vector-transfected) were cultured in DMEM (Sigma, high glucose, 10% FBS, 1% penicillin (10,000 Units/mL)/streptomycin (10 mg/mL)) at 37°C under 5% CO2 in humidified atmosphere. The cells were routinely checked for the absence of mycoplasma infection. For the preparation of HEK293 cell monolayers, 24-well plates were pretreated with a poly-D-lysine hydrobromide solution (0.1 mg/mL). […]
(§2) For the uptake assay, the growth medium was aspirated, and each well was rinsed three times with 0.5 mL of incubation buffer (HBSS supplemented with 20 mM HEPES, pH 7.4) and incubated for 20 min at 37 °C. […] Cells were solubilized with 0.6 mL of 1N NaOH overnight and transferred into scintillation vials. ^3H and ^14C contents were measured after the addition of 2.5 mL of scintillator in a liquid scintillation counter.
(§3) The cellular protein amount was determined in parallel for each cell line (vector- and transporter-transfected) from six wells in a different 24-well reference plate using the Bradford method. […]
(§4) The inhibitory effect (I(%)) was calculated according to the formula: [drawing 5] […]

mMate1 = target: T2, mMate1 (Mus musculus, UniProt Q8K0H1); test: Two-point inhibition of mMate1-mediated metformin uptake in transfected HEK293 cells; details: 1 and 10 μM; metformin 20 μM, 1 min
T2 construct: expressed in transfected cells; host or cells: HEK293
T2 sequence (Q8K0H1 1-567): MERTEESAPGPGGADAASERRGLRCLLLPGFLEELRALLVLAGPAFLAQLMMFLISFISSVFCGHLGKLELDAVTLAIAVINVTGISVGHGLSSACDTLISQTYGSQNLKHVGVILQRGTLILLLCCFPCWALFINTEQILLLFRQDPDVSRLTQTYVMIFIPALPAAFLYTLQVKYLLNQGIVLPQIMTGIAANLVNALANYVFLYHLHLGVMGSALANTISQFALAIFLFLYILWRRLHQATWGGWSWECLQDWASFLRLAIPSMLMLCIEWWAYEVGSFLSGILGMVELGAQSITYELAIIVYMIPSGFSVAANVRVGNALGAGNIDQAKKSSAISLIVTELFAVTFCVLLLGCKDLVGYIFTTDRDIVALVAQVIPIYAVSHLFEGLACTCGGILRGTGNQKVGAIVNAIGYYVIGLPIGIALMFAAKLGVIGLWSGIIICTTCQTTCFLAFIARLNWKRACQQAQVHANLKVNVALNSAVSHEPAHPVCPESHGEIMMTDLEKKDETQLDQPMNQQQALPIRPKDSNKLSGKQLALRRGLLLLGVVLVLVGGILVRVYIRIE
Protocol: as §1, §2, §3, §4

mOct1 = target: T3, mOct1 (Mus musculus, UniProt O08966); test: Two-point inhibition of mOct1-mediated MPP uptake in transfected HEK293 cells; details: 1 and 10 μM; MPP 10 μM, 1 min
T3 construct: expressed in transfected cells; host or cells: HEK293
T3 sequence (O08966 1-556): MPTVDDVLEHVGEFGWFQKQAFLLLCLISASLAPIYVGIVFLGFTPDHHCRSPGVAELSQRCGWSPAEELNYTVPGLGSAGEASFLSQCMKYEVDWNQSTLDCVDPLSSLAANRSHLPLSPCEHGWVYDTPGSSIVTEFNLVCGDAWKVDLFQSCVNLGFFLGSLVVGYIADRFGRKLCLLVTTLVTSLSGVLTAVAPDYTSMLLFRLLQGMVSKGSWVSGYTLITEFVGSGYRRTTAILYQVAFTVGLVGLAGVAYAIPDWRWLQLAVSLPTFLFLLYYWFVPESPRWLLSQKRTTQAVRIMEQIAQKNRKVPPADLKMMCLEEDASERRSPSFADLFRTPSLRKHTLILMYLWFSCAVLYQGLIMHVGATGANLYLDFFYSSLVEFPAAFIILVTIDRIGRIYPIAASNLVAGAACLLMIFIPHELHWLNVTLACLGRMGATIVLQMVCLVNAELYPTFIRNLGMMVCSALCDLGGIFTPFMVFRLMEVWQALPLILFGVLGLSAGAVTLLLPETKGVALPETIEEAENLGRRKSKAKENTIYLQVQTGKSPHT
Protocol: as §1, §2, §3, §4

Row | Structure (SMILES) | inhibitory effect on mOct2 (in words) (mOct2) | inhibitory effect on mMate1 (in words) (mMate1) | inhibitory effect on mOct1 (in words) (mOct1)
1 | Cc1ccc2c(C)c3c(c(O)c2c1O)C(=O)[C@@]1(O)C(=O)C(C(N)=O)=C(O)[C@@H](N)[C@H]1C3 [CDCHD, amidochelocardin] | No inhibitory effect | did not have major effects | slight inverse inhibitory effect
2 | CC(=O)C1=C(O)[C@@H](N)[C@H]2Cc3c(c(O)c4c(O)c(C)ccc4c3C)C(=O)[C@@]2(O)C1=O [CHD, chelocardin] | No inhibitory effect | weak inhibitory effect | No inhibitory effect
